{"source": "paper PMC8365602", "about": "(Journal of Medicinal Chemistry, 2021)", "key": {"[1]": {"experiment": "Radical scavenging activity (DPPH)", "conditions": "DPPH", "protocol": "Compound 27a was incubated with 2,2-diphenyl-1-picrylhydrazyl (DPPH, Sigma-Aldrich; 50 mM) in ethanol for 30 min, and the absorbance was measured at 520 nm using a Multiskan Spectrum Microplate Reader (Thermo Fisher Scientific).[72] The positive control ascorbic acid (Sigma-Aldrich; 25 μM) scavenged DPPH radicals by 36 ± 11%."}, "[2]": {"system": "PMNL", "experiment": "fMLP-induced Ca2+ influx in PMNL", "format": "cell-based, human", "protocol": "PMNL (1 × 10^6) were loaded with Fura-2/AM (2 nmol, Thermo Fisher Scientific) for 45 min at 37 °C. […] Intracellular Ca^2+ concentrations were measured using a NOVOstar fluorescence microplate reader (BMG Labtech, Ortenberg, Germany) at 37 °C. The emission wavelength was set to 510 nm and the excitation wavelengths to 340 nm (Ca^2+-bound Fura-2) and 380 nm (free Fura-2).[23] To define 100% Ca^2+ influx, the difference between the maximal influx (cell lysis by Triton X-100) and minimal influx (subsequent chelation of Ca^2+ by EDTA) was measured for each experiment."}, "[3]": {"target": "T1, ovine COX-1 (Ovis aries, UniProt P05979)", "T1 construct": "purchased Cayman Chemicals", "T1 sequence (P05979 25-600)": "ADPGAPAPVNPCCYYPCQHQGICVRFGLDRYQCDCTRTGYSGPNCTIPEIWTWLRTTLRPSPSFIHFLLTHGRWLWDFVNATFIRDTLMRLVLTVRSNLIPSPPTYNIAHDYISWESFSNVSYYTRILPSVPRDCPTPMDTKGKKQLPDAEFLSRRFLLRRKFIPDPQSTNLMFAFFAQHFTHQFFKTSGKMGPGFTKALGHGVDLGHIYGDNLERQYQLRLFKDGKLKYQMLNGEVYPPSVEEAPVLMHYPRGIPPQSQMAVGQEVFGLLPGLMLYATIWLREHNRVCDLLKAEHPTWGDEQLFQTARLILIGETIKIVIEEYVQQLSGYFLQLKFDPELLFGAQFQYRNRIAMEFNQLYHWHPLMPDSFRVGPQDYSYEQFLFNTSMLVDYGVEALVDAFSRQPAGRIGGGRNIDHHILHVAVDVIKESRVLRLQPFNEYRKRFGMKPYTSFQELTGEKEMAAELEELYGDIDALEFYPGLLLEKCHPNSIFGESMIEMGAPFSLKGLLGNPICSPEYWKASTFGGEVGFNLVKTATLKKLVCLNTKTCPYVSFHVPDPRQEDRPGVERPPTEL", "experiment": "Isolated COX-1 activity", "format": "biochemical", "protocol": "(§1) Purified ovine COX-1 (Cayman Chemicals; 50 units) or human recombinant COX-2 (Cayman Chemicals; 20 units) was dissolved in 100 mM Tris buffer pH 8, 5 mM glutathione, 5 μM hemoglobin, and 100 μM EDTA. COX isoenzymes were preincubated with the vehicle (DMSO) or 27a for 5 min at 4 °C and 1 min at 37 °C. Addition of arachidonic acid (COX-1: 5 μM; COX-2: 2 μM) initiated the formation of COX-derived 12(S)-hydroxy-5-cis-8,10-trans-heptadecatrienoic acid (12-HHT), which was extracted and analyzed by RP-HPLC according to 5-LOX products."}, "[4]": {"target": "T2, human recombinant COX-2 (Homo sapiens, UniProt P35354)", "T2 construct": "purchased Cayman Chemicals", "T2 sequence (P35354 18-604)": "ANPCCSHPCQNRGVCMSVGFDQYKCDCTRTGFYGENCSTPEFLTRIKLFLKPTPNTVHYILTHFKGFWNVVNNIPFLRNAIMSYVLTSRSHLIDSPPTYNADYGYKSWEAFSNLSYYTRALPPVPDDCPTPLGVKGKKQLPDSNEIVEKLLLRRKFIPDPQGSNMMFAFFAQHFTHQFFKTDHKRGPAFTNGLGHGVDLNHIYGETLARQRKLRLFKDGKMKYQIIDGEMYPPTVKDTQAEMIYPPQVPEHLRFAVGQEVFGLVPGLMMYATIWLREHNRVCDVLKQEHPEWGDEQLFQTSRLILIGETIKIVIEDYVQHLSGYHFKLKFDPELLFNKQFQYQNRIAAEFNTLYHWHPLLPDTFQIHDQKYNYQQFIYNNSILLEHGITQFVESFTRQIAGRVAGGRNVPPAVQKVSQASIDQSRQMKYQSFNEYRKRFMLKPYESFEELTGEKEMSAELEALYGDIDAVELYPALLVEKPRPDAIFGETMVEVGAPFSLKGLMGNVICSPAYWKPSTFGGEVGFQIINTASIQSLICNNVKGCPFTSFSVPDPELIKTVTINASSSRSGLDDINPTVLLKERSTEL", "experiment": "COX-2 activity", "format": "biochemical", "protocol": "as §1"}, "[5]": {"experiment": "Concentrations of compound in plasma and lung in the asthma model", "format": "in vivo, mice", "conditions": "10 mg/kg p.o. on days 0 and 7", "protocol": "LCMs, 27a, and 27a metabolites were extracted from PMNL, medium of the liver-on-chip, murine plasma, peritoneal exudate, or homogenized murine tissue as described.[6] In brief, PBS pH 7.4, methanol, chloroform, and saline (final ratio: 14:34:35:17) were successively added together with 13d (9 pmol) as the internal standard. The organic layer was evaporated, and the extracted LCMs were dissolved in methanol.\nLCMs, 27a, and 27a metabolites were separated at a flow rate of 0.8 mL/min and a column temperature of 45 °C, with acetonitrile/H2O (10:90) as mobile phase A and acetonitrile as mobile phase B, both acidified with 0.07% formic acid. […] Signal intensities were normalized to the internal standard 13d, and concentrations were calculated using external calibration curves as specified in Table S3.\nBALB/c mice received 27a (p.o.) or vehicle (0.5% carboxymethylcellulose in 10% Tween 20; 0.5 mL) on days 0 and 7, 1 h (p.o) before being sensitized to ovalbumin (100 μg adsorbed to 3.3 mg of aluminum hydroxide gel, s.c., Sigma-Aldrich). […] To assess bronchial reactivity, the cumulative response to carbachol (0.001 to 3.16 μM) was measured. Bronchial relaxation was determined from the cumulative response of precontracted bronchial tissues to salbutamol. Compound 27a, LTB4, and LTB4 isomers were analyzed in plasma and lung homogenates by UPLC-MS/MS. […]"}, "[6]": {"target": "T3, 5-LOX (Homo sapiens, UniProt P09917)", "T3 sequence (P09917 1-674)": "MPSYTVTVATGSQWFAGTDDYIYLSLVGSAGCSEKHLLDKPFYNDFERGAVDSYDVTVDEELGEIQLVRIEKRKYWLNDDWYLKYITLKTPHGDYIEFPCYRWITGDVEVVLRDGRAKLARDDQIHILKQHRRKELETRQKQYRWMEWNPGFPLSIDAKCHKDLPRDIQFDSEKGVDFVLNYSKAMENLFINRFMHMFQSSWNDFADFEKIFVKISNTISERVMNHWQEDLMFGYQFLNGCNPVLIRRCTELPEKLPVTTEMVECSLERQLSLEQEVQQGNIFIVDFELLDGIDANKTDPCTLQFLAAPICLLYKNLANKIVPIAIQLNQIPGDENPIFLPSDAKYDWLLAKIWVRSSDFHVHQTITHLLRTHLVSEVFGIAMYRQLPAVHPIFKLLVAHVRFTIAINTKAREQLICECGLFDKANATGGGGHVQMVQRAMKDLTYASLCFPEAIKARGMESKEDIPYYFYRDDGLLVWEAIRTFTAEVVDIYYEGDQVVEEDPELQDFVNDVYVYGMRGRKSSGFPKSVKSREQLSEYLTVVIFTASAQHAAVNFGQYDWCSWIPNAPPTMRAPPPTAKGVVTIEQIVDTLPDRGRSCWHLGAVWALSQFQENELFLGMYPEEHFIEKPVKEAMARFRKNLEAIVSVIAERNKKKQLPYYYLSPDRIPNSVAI", "experiment": "5-LOX product formation in activated PMNL", "method": "These volunteers regularly donated blood (every 8–12 weeks) and were physically inspected by a clinician.\nErythrocytes were removed by dextran sedimentation and hypotonic lysis. PMNL were obtained from the cell pellet and platelets from the supernatant.\nFreshly isolated PMNL (5 × 10^6) suspended in PBS pH 7.4 with 1 mg/mL glucose or freshly withdrawn human whole blood were preincubated with the test compounds for 10 min (or as indicated) at 37 °C. […] The reaction was stopped with an equal volume of methanol."}, "[7]": {"target": "triple mutant Trp13Ala, Trp75Ala, and Trp102Ala 5-LOX (3W) (Homo sapiens, UniProt P09917, W103A/W14A/W76A)", "sequence (P09917 whole entry W14A/W76A/W103A)": "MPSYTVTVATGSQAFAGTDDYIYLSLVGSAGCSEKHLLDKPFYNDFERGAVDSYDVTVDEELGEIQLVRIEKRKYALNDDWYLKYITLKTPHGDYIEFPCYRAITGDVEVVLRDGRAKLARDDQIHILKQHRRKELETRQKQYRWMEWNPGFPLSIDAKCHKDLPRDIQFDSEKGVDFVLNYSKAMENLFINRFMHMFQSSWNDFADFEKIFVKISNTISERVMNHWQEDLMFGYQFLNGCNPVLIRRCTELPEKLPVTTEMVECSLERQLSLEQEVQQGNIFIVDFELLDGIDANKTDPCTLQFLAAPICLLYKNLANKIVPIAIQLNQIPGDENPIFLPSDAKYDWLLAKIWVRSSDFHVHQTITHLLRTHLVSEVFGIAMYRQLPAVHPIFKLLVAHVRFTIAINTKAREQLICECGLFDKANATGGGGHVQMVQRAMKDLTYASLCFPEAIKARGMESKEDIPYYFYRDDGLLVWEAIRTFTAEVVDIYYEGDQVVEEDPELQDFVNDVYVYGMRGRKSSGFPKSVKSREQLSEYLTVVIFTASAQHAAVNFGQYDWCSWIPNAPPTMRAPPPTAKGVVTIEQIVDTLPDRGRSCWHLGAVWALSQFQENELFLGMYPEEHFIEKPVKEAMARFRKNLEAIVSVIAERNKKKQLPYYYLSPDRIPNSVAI", "experiment": "Cell-free activity of 5-LOX triple mutant (3W)", "method": "(§2) Human recombinant 5-LOX was expressed in E. coli Bl21 (DE3) cells that were transformed with pT3–5LOX (wt 5-LOX), 5-LOX_3W (triple mutation of Trp102Ala/Trp13Ala/Trp75Ala), or 5-LOX_R (single mutant of the Arg101Asp plasmid) and purified on an ATP-agarose column (Econo-Pac, Bio-Rad, Hercules, CA) by affinity chromatography.[6],[75]\n(§3) Purified 5-LOX (0.5 μg in PBS pH 7.4 containing 1 mM EDTA and 1 mM ATP) was preincubated with the vehicle (DMSO) or test compounds for 10 min and prewarmed at 37 °C."}, "[8]": {"target": "single mutant Arg101Asp 5-LOX (R101D) (Homo sapiens, UniProt P09917, R102D)", "sequence (P09917 whole entry R102D)": "as the sequence (P09917 whole entry W14A/W76A/W103A) above, with A14W, A76W, R102D, A103W counted along it", "experiment": "Cell-free activity of 5-LOX single mutant (R101D)", "method": "as §2, §3"}}, "note": "Where two headings read alike, the source gives them in different places.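 Throughout, for IC50: freshly isolated human PMNL in PBS pH 7.4 plus glucose, preincubated 10 min at 37 °C with compound, 5-LOX products (all-trans LTB4 isomers, 5-HETE) quantified by RP-HPLC.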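 Throughout, for remaining activity: freshly isolated human PMNL in PBS pH 7.4 plus glucose, preincubated 10 min at 37 °C with compound, 5-LOX products (all-trans LTB4 isomers, 5-HETE) quantified by RP-HPLC.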", "data": [{"smiles": "C/C(=C\\CC/C(C)=C/CC[C@]1(C)CCc2c(C)c(O)c(C)c(C)c2O1)CCC=C(CO)CO", "note": "[Compound 27a, α-amplexichromanol]", "values": [{"measurement": "Concentrations with antioxidative properties (radical scavenging) versus 5-LOX inhibition", "setting": "[1]", "value": "exceed those that effectively inhibit 5-LOX"}, {"measurement": "Ca2+ influx", "setting": "[2]; 10 μM", "value": "substantially reduced"}, {"measurement": "Intracellular levels of Ca2+", "setting": "[2]; submicromolar concentrations (≤1 μM)", "value": "nor influenced intracellular levels of Ca^2+"}, {"measurement": "COX-1 inhibition (isolated ovine enzyme)", "setting": "[3]", "value": "not substantially inhibited"}, {"measurement": "COX-2 inhibition", "setting": "[4]", "value": "not substantially inhibited"}, {"measurement": "Time course of systemic concentrations in plasma and lung", "setting": "[5]", "value": "peaked at the days after administration (days 1 and 8) and then rapidly declined"}, {"measurement": "remaining activity at 3 µM", "setting": "[6]; PMNL, read-out: 5-LOX PMNL residual activity at 3 μM", "value": "0.5 ± 0.1", "unit": "%"}, {"measurement": "IC50", "setting": "[6]; read-out: 5-LOX PMNL IC50, 5-LOX product formation in activated PMNL, mean ± SEM", "value": "40 ± 10", "unit": "nM"}, {"measurement": "IC50", "setting": "[6]; read-out: IC50, 5-LOX product formation in PMNL, A23187", "value": 50, "unit": "nM"}, {"measurement": "Effect of Trp102Ala/Trp13Ala/Trp75Ala triple mutation on 5-LOX inhibition", "setting": "[7]", "value": "failed to affect 5-LOX inhibition"}, {"measurement": "Effect of Arg101Asp replacement on 5-LOX inhibition", "setting": "[8]", "value": "failed to affect 5-LOX inhibition"}]}]}
